Data set [1] deals with K562 human chronic myeloid leukemia cells. Description: Erythroid differentiation of K562 cells. The class given is cell-based. Particulars: 10^-7 M, 7 days. The procedure:
K562 human chronic myeloid leukemia (erythroleukemia) and MEL mouse erytholeukemia cells were cultured in RPMI 1640 containing 10% FBS and treated with the drugs at concentrations 0.1 μM. A 0.1% ethanol (EtOH) or 2% DMSO were used as negative or positive control, respectively to estimate the vehicle effect and the ability of the cells to differentiate. Media were exchanged every 72 h and drugs added every day. Growth of cultures was estimated by counting number of viable cells (trypan blue negative cells) as described previously.
To estimate erythroid differentiation (production of hemoglobin), first the number of benzidine positive cells was evaluated after 2 and 7 days in culture. Cells were centrifuged and washed four times with PBS and resuspended in 1 mL of fresh PBS. For hemoglobin determination, a benzidine staining solution was freshly prepared by mixing one part of 30% hydrogen peroxide, one part of base stock solution of 3% benzidine in 90% acetic acid, and 5 parts of water. The solution was diluted 1:10 with the cell suspension and aliquoted in 4 wells in 24-well plate (250 μl each). After 10 min of incubation at RT benzidine-positive cells were counted under the microscope with a minimum of 200 cells scored.
Second, to define spectrophotometrically relative content of hemoglobin, equal number of cells (7×106) were washed with cold PBS and lysed for 20 min in 100 μL of lysis buffer (0.2% Triton X-100 in […] potassium phosphate buffer, pH 7.8). The lysates were centrifuged for 15 min at 1500 r.p.m. and 100 μL of the supernatant was incubated with 2 mL of benzidine solution (5 mg/mL in glacial acetic acid) and 2 ml 30% H2O2 for 10 min increases in comparison with the level of hemoglobin in mock-induced K562 or MEL cells.

For data set [2], the system named is type I collagen. Description: Type I collagen ELISA, TGF-b1 stimulated skin fibroblasts. Particulars: human skin fibroblasts. The class given is cell-based. The procedure:
Additional studies using human skin fibroblasts were performed employing a type I collagen specific ELISA Chondrex, and real time RT PCR to quantitate type I collagen protein and Col1A1 mRNA expression in culture of human fibroblast stimulated by TGF-b1 in the presence and absence of 17,20S(OH)2pD3 and/or 20(OH)D3. These studies confirmed that Type I collagen protein production that was induced by TGF-b1 and that Col1A1 mRNA that was induced by TGF-b1 were suppressed by these analogues (FIGS. 44A-44B).

The subject of data set [3] is cytokeratin 14. As to the kind of experiment: Real-time RT PCR cytokeratin 14 mRNA, normal epidermal keratinocytes. It counts as cell-based, human. To be noted: 10^−10 M. The procedure: RNA was extracted using an Absolutely RNA RT-PCR Miniprep Kit (Stratagene, La Jolla, Calif.). Real time PCR and reverse transcription products were purchased from Applied Biosystems, Foster City, Calif. Reverse transcription was performed using Taqman® Reverse Transcription Reagents. The following PCR products were used: cytokeratin 14: Hs00265033_m1, involucrin: Hs00846307_s1, CYP27A1: Hs00168003_ml, CYP27B1: Hs00168017_ml, 18SrRNA: Hs99999901_s1. The reaction was performed with Taqman® Universal PCR Master Mix; data were collected on an ABI Prism 7700 and analyzed on Sequence Detector 1.9.1. Specific gene amounts were related to 18SrRNA by comparative CT method.

In data set [4] the target is T1, rat CYP24 (Rattus norvegicus, UniProt Q09128).
T1 sequence (Q09128 36-514): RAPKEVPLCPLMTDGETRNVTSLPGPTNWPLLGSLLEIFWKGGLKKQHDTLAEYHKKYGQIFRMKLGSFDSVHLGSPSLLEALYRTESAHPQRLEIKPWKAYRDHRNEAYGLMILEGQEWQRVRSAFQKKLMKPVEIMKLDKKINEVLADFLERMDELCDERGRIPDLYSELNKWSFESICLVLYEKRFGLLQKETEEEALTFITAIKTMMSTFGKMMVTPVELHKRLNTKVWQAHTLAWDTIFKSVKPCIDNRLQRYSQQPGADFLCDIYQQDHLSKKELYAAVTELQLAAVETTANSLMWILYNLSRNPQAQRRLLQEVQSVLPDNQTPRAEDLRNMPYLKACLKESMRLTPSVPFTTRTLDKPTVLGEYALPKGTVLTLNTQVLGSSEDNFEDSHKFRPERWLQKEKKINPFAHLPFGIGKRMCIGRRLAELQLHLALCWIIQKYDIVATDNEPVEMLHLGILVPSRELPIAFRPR
Description: Metabolism by rat CYP24 in phospholipid vesicles. The procedure: Samples (typically 0.25-1.0 mL) were incubated at 37° C., with shaking, then reactions terminated by the addition of 2.5 mL ice-cold dichloromethane and vortexing. After phase separation aided by centrifugation, the lower organic phase was retained and the upper aqueous phase was extracted twice more with 2.5 mL aliquots of dichloromethane. The dichloromethane was removed under nitrogen and the residual sample dissolved in solvent for HPLC analysis.
To test enzymatic metabolism of 20S(OH)D3 and 20R(OH)D3, the substrates were incorporated into phospholipid vesicles with the ratio of substrate to phospholipid being 0.025 mol/mol phospholipid. Vesicles were incubated with 2 μM bovine CYP11A1 or 0.06 μM human CYP27B1 for up to 10 min. To test enzymatic metabolism of 20(OH)D3 in CYP24, the substrate was incorporated into phospholipids vesicles with 0.15-0.5 μM CYP24. To test enzymatic metabolism of 20(OH)D3 in CYP27A1, purified CYP27A1 was preincubated with the vesicles for 6 min at 37° C. Adrenodoxin was added last to initiate the reaction. For kinetic experiments, the incubations were typically 0.5 mL and were carried out over the initial linear period of the reaction (10 min for vitamin D3 and cholesterol and 30 min for 20(OH)D3).

Data set [5] concerns human breast carcinoma cell line MD-MBA-231. As to the kind of experiment: Proliferation of MD-MBA-231 breast carcinoma cells. It counts as cell-based. To be noted: MD-MBA-231, 48 h, [3H]-thymidine. The procedure:
Cells were seeded in 96-well plate and incubated with 20-hydroxycholecalciferol in DMEM medium containing 5% FBS for 48 h (FIG. 25A) or 72 h (FIG. 25C) or for 24 h after a 12 h synchronization in serum free medium (FIG. 25D). […] was added for a final 18 h (FIGS. 25A, 25D) or 12 h (FIG. 25C) of incubation or cells were assessed with sulforhodamine assay (FIG. 25C). Data is shown as mean±SEM (n=5; FIG. 24C) or mean±SEM (n=6; FIGS. 24A, 24C, 24D) and was analyzed using GraphPrism 4.0.

Take `C=C1CC[C@H](O)C/C1=C/C=C1\CCC[C@]2(C)[C@@H](C(C)=O)CC[C@@H]12` [pD3, (5Z,7E)-3β-hydroxy-9,10-secopregna-5,7,10(19)-trien-20-one]: in data set [1], the “differentiation of K562 cells” value is recorded as “induce differentiation”.
Take `C=C1CC[C@H](O)C/C1=C/C=C1\CCC[C@@]2(C)[C@H]1CC[C@@H]2[C@@](C)(O)CCCC(C)C` [20(OH)D3, (5Z,7E)-9,10-secocholesta-5,7,10(19)-triene-3β,20-diol]: in data set [2], the “TGF-b1 induced Type I collagen protein production (ELISA)” value is reported as “suppressed”. Besides, in data set [3] (1 h), the “cytokeratin 14 mRNA expression” value is 45 % of the control. The “cytokeratin 14 mRNA expression” value in data set [3] (6 h) was 62 % of the control. In data set [4], the Km is given as 0.028±0.007 mol substrate/mol phospholipid and the kcat/Km is given as 386 min^−1(mol substrate/mol phospholipid)^−1. In data set [4] (phospholipid vesicles), the kcat is on record as 10.8±0.8 mol/min/mol CYP24, the “kcat/Km lower than for 1,25(OH)2D3” value was found to be 24 fold and the “kcat/Km lower than that for 25(OH)D3” value was determined as 17 fold. In addition, in data set [5], the EC50 (as a rule, the concentration giving half of the maximal effect) was 10 nM.

The values above are taken from patent US20120258938A1, “Enzymatic Production or Chemical Synthesis and Uses for 5,7-Dienes and UVB Conversion Products Thereof” (priority 2008, published 2012).
